Laboratory results from US20220105192A1, “COMPOSITION, METHOD AND USE THEREOF” (RYBOQUIN COMPANY LTD, priority 2019, published 2022).

Assays:
Itch protein [1] = assay: Western blot of Itch protein after siRNA transfection, BE2 cells; assay type: cell-based; details: 72 hours after transfection, in comparison to irrelevant siRNA treated cells
Method: (§1) Transfection with LipofectAMINE 2000: one day before transfection, cells were plated at 8×10^4 cells per well for 24-well plate or 1.5×10^5 cells per well for 6-well plate in culture medium. On the day of transfection, LipofectAMINE 2000 (Thermal Fisher) or ITCH/Irrelevant siRNA (Eurogentec) was pre-diluted in OptiMEM (Thermal Fisher) with various concentrations and mixed to form complexes at room temperature (RT) for 25 min before adding to cells. mRNAs or protein lysates were collected 72 hours after transfection for further analysis.
Western blot: 72 hours after transfection, protein was extracted in RIPA (Radio-Immunoprecipitation Assay) lysis buffer (Sigma) containing a complete protease inhibitor cocktail (1:100, Roche). 100 μl of lysis buffer was added to each well of the 6-well plate, and left on ice for 10 minutes. Samples were collected and boiled for 3 minutes and then centrifuged at 14,000 g for 10 minutes at 4° C. The supernatants were stored at −80° C. until needed. 30 μl/well of each sample were loaded onto NuPAGE Novex 10% bis-Tris Gel, and run at a constant voltage of 150V for 1 hour, before being transferred to a nitrocellulose membrane at 300 mA for 2 hours. […]

Kelly cells = assay: SubG1 analysis (apoptosis) of transfected Kelly cells after 4 Gy irradiation; assay type: cell-based; details: 4 Gy irradiation three days after transfection, analysed one day after irradiation
Method: SubG1 analysis: to examine the effects of ITCH silencing on the apoptosis of neuroblastoma cells upon irradiation, Kelly cells were firstly transfected with ITCH siRNA as described above, using irrelevant siRNA as control. Cells were exposed to 4 Gy irradiation three days after transfection. 24 hours after irradiation, cells were trypsinized and centrifuged at 2000 rpm, for 5 min. Pre-cold 70% ethanol was then added dropwise to cell pellet, and the cells were fixed at 4° C. for 30 min before centrifuge again and the cell pellet washed with citric buffer twice before adding 50 μl RNase followed by 50 μg/ml PI (propidium iodide) for 5 min. The cells were then pelleted again at 2000 rpm for 5 min, and re-suspended in 0.5 ml PBS for FACS (fluorescent associated cell sorting) analysis. The cell cycle profile was acquired using FACS calibur machine and the percentage of cells in the SubG1 region was calculated using Flowjo software.
Kelly cells were transfected with ITCH and irrelevant siRNA, respectively. Three days later, cells were subjected to 4 Gy irradiation. The subG1 population was analysed one day after the irradiation. […] This difference was statistically significant between the 2 groups (p<0.001, Mann-Whitney test).

ITCH mRNA [2] = assay: ITCH mRNA knockdown by qPCR after LipofectAMINE 2000 transfection, BE2 cells; assay type: cell-based
Method: as §1
(§2) Real-time PCR: cDNA from each mRNA sample was synthesized using superscript III first strand synthesis kit (Thermal Fisher). To determine the ITCH expression, real time PCR was performed using SYBR-green qPCR kit (Eurogentec), using beta-actin or SDHA (sequence details as above) as endogenous control. The qPCR was run using either StepOne plus qPCR machine (Thermal Fisher) or CFX96 qPCR system (Bio-Rad). Results were analysed using their corresponding software.
(§3) To determine ITCH silencing in neuroblastoma cells in vitro, neuroblastoma cells were transfected with ITCH siRNA, using LipofectAMINE 2000 as the transfection reagent. Cells were transfected with either, a) ITCH siRNA (6.25 nM to 100 nM) using 2 μl/well LipofectAMINE 2000 or b) Different amounts of LipofectAMINE2000 (0.5 μl/well, 1 μl/well and 2 μl/well) with 100 nM ITCH siRNA for 4 hours in OptiMEM, and then change into complete medium for a further 72 hours.
(§4) The ITCH mRNA levels were determined by qPCR, and cells transfected with irrelevant siRNA were used as the control.

ITCH mRNA [3] = assay: In vivo silencing of ITCH in neuroblastoma (Kelly) xenograft tumours, real time RT-PCR; design: species or system mouse; details: for Differences in % (ITCH SiRNA vs Irre SiRNA), relative ITCH expression <0.8 / Differences in % (ITCH SiRNA vs Irre SiRNA), relative ITCH expression <1 / % of samples with relative ITCH expression <0.8 / % of samples with relative ITCH expression <1 / Number of samples with relative ITCH expression <0.8 / Number of samples with relative ITCH expression <1: 24 h after injection; for % of samples with relative ITCH expression <0.8 / % of samples with relative ITCH expression <1 / Number of samples with relative ITCH expression <0.8 / Number of samples with relative ITCH expression <1: n number 24; for more samples expressing lower level of ITCH (relative expression <0.8) in treated group than in control group: 48 h after delivery; for ITCH silencing: 48 hours after delivery, vs irrelevant siRNA group; for Relative expression of ITCH/SDHA (mean ± SEM) / Relative expression of ITCH/β-actin (mean ± SEM): xenograft tumours
Method: Establishment of the xenograft neuroblastoma model and in vivo transfection of ITCH siRNA with nanoparticles: 6-8 week old NSG-SCID female mice were ordered from Charles River laboratories. All procedures were approved by UCL animal care policies and were carried out under Home Office Licenses issued in accordance with the United Kingdom Animals (Scientific Procedures) Act 1986 (UK). The mice were acclimatized for 1-2 weeks before engrafting the neuroblastoma cells. On the day of injection, Kelly cells were trypsinized and re-suspended in medium at a density of 3×10^6 cells/100 μl. 100 μl cell suspension was mixed with equal volume of Matrigel (BD biosciences) on ice and immediately injected subcutaneously into the left or right upper thigh of the mouse. The body weight and the tumour size/volume of each mouse were monitored from D4 after engraftment. The in vivo administration of the ITCH siRNA nanoparticles was performed on mouse once its tumour grew bigger than 5mm at both dimensions. The nanoparticle formulation for in vivo study was also prepared at the 1:4:1 ratio, using cationic lipid AT-1, which contains 1% PEG and the peptide used was ME27. 1 mg siRNA/kg of nanoparticles was injected intravenously into each mouse. The tumour was harvested either 24 hours or 48 hours after administration, and processed for qPCR analysis.
Real time RT-PCR analysis of tumour samples: each tumour was divided into 4 parts and mRNA was extracted respectively for real time RT-PCR analysis. iTaq Universal SYBR Green One-Step Kit was used in this assay. For normalization, 2 separate housekeeping genes, beta-actin and SDHA (Fisher M, 2005) were included. As there were in total 104 samples to test, it was not possible to fit all samples in a single 96 well testing plate. Therefore, sample 05 c was chosen, from an untreated tumour sample as a common control. This sample was included in every plate that was run and all the data from each plate were calculated relative to this sample (the ddCT value of each sample was calculated by subtracting the deICT value of sample 05 c).

Itch protein [4] = assay: Western blot of Itch protein after siRNA transfection, Kelly cells; assay type: cell-based
Method: as §1
[…] 100 μl of lysis buffer was added to each well of the 6-well plate, and left on ice for 10 minutes. Samples were collected and boiled for 3 minutes and then centrifuged at 14,000 g for 10 minutes at 4° C. The supernatants were stored at −80° C. until needed. 30 μl/well of each sample were loaded onto NuPAGE Novex 10% bis-Tris Gel, and run at a constant voltage of 150V for 1 hour, before being transferred to a nitrocellulose membrane at 300 mA for 2 hours. The membrane was then blocked with Odyssey block solution (LI-COR Biosciences) for 60 min, incubated by primary antibodies of mouse anti-ITCH antibody (1:2000, BD) or rabbit anti-TP73 (1:1000, Generon), and mouse anti-beta actin (1:5000, Sigma) overnight at 4° C. […]

ITCH mRNA [5] = assay: ITCH mRNA knockdown by qPCR after LipofectAMINE 2000 transfection, Kelly cells; assay type: cell-based
Method: as §1, §2, §3, §4

TP73 = assay: Western blot of TP73 after ITCH siRNA transfection, Kelly cells; assay type: cell-based; details: LipofectAMINE2000, samples at 1, 2, 3, 6 days and D6+3, western blot normalized to β-actin
Method: […] 100 μl of lysis buffer was added to each well of the 6-well plate, and left on ice for 10 minutes. Samples were collected and boiled for 3 minutes and then centrifuged at 14,000 g for 10 minutes at 4° C. The supernatants were stored at −80° C. until needed. 30 μl/well of each sample were loaded onto NuPAGE Novex 10% bis-Tris Gel, and run at a constant voltage of 150V for 1 hour, before being transferred to a nitrocellulose membrane at 300 mA for 2 hours. The membrane was then blocked with Odyssey block solution (LI-COR Biosciences) for 60 min, incubated by primary antibodies of mouse anti-ITCH antibody (1:2000, BD) or rabbit anti-TP73 (1:1000, Generon), and mouse anti-beta actin (1:5000, Sigma) overnight at 4° C. After washing with PBS (phosphate-buffered saline) containing 1% Tween 20 (PBST) for 15 min×3 times at room temperature, the membrane was then incubated with IRDye 680 RD goat anti-rabbit and IRDye 800 CW goat anti-mouse 2nd antibodies (1:15000, LI-COR Biosciences) for 1 hour at RT. The image of the blotted membrane was acquired by Odyssey Clx infrared imaging system (LI-COR Biosciences) using image studio software.
Kelly cells were transfected with ITCH siRNA or irrelevant siRNA in 6-well plates using LipofectAMINE2000. The protein samples were collected 1 day, 2 days, 3 days and 6 days after transfection. […]

[6] = 6.25 nM siRNA, 2 μl/well LipofectAMINE 2000, qPCR, control irrelevant siRNA
[7] = 12.5 nM siRNA, 2 μl/well LipofectAMINE 2000, qPCR, control irrelevant siRNA
[8] = 25 nM siRNA, 2 μl/well LipofectAMINE 2000, qPCR, control irrelevant siRNA
[9] = 50 nM siRNA, 2 μl/well LipofectAMINE 2000, qPCR, control irrelevant siRNA
[10] = 100 nM siRNA, 2 μl/well LipofectAMINE 2000, qPCR, control irrelevant siRNA
[11] = 24 hours after i.v. 1 mg siRNA/kg nanoparticles (AT-1, ME27)
[12] = 48 hours after i.v. 1 mg siRNA/kg nanoparticles (AT-1, ME27)

Substance: ITCH siRNA: siRNA, sense strand 5′-GCUGUUGUUUGCCAUAGAA55-3′ (SEQ ID NO 003), antisense strand 5′-UUCUAUGGCAAACAACAGC55-3′ (SEQ ID NO 004) (Eurogentec) (listed as RNA, chemistry not given here)
- changes in Itch protein level (Itch protein [1]): no changes
- percentage of SubG1 (apoptotic) cells (Kelly cells): 8.36%
- ITCH knockdown (ITCH mRNA [2]; [6]): -39%
- ITCH knockdown (ITCH mRNA [2]; [7]): 54%
- ITCH knockdown (ITCH mRNA [2]; [8]): 48.7%
- ITCH knockdown (ITCH mRNA [2]; [9]): 71.8%
- ITCH knockdown (ITCH mRNA [2]; 100 nM siRNA, 0.5 μl/well LipofectAMINE 2000): 88.7%
- ITCH knockdown (ITCH mRNA [2]; 100 nM siRNA, 1 μl/well LipofectAMINE 2000): 49%
- ITCH knockdown (ITCH mRNA [2]; 100 nM siRNA, 2 μl/well LipofectAMINE 2000 (LipofectAMINE amount series)): 34%
- ITCH knockdown (ITCH mRNA [2]; [10]): 38.2%
- Differences in % (ITCH SiRNA vs Irre SiRNA), relative ITCH expression <0.8 (ITCH mRNA [3]; normalized to SDHA): 12.5%
- Differences in % (ITCH SiRNA vs Irre SiRNA), relative ITCH expression <1 (ITCH mRNA [3]; normalized to SDHA): 4.17%
- % of samples with relative ITCH expression <0.8 (ITCH mRNA [3]; normalized to SDHA): 25%
- % of samples with relative ITCH expression <1 (ITCH mRNA [3]; normalized to SDHA): 41.67%
- Number of samples with relative ITCH expression <0.8 (ITCH mRNA [3]; normalized to SDHA): 6
- Number of samples with relative ITCH expression <1 (ITCH mRNA [3]; normalized to SDHA): 10
- Differences in % (ITCH SiRNA vs Irre SiRNA), relative ITCH expression <0.8 (ITCH mRNA [3]; normalized to β-actin): −16.67%
- Differences in % (ITCH SiRNA vs Irre SiRNA), relative ITCH expression <1 (ITCH mRNA [3]; normalized to β-actin): 8.33%
- % of samples with relative ITCH expression <0.8 (ITCH mRNA [3]; normalized to β-actin): 16.67%
- % of samples with relative ITCH expression <1 (ITCH mRNA [3]; normalized to β-actin): 45.83%
- Number of samples with relative ITCH expression <0.8 (ITCH mRNA [3]; normalized to β-actin): 4
- Number of samples with relative ITCH expression <1 (ITCH mRNA [3]; normalized to β-actin): 11
- more samples expressing lower level of ITCH (relative expression <0.8) in treated group than in control group (ITCH mRNA [3]; normalized to SDHA): 35%
- more samples expressing lower level of ITCH (relative expression <0.8) in treated group than in control group (ITCH mRNA [3]; normalized to β-actin): 27.14%
- ITCH silencing (ITCH mRNA [3]; normalized to SDHA): 14.6%
- ITCH silencing (ITCH mRNA [3]; normalized to β-actin): 19.15%
- ITCH silencing (summary) (ITCH mRNA [3]; neuroblastoma xenograft model, nanoparticles, 48 hours after transfection): 15-20%
- Relative expression of ITCH/SDHA (mean ± SEM) (ITCH mRNA [3]; [11]): 1.18 ± 0.10
- Relative expression of ITCH/β-actin (mean ± SEM) (ITCH mRNA [3]; [11]): 1.05 ± 0.06
- Relative expression of ITCH/SDHA (mean ± SEM) (ITCH mRNA [3]; [12]): 0.82 ± 0.05
- Relative expression of ITCH/β-actin (mean ± SEM) (ITCH mRNA [3]; [12]): 0.76 ± 0.05
- remaining Itch protein level (Itch protein [4]; 72 hours after transfection, western blot, in comparison to non-transfected cells): 31.6%
- Itch protein level, time course (Itch protein [4]; LipofectAMINE2000, 1 day to 6 days after the 1st transfection, vs irrelevant siRNA, normalized to β-actin): downregulation of Itch protein was observed
- ITCH knockdown (ITCH mRNA [5]; [6]): 64.7%
- ITCH knockdown (ITCH mRNA [5]; [7]): 77.8%
- ITCH knockdown (ITCH mRNA [5]; [8]): 73.5%
- ITCH knockdown (ITCH mRNA [5]; [9]): 89%
- ITCH knockdown (ITCH mRNA [5]; 100nM SiRNA, 0.5 μl/well LipofectAMINE 2000): 85%
- ITCH knockdown (ITCH mRNA [5]; 100nM SiRNA, 1 μl/well LipofectAMINE 2000): 83%
- ITCH knockdown (ITCH mRNA [5]; 100nM SiRNA, 2 μl/well LipofectAMINE 2000 (LipofectAMINE amount series)): 78.8%
- ITCH knockdown (ITCH mRNA [5]; [10]): 78%
- TP73 protein level, time course (TP73): upregulation was only detected at day 3 samples and day 6 samples which had been transfected twice
